Assay [1] concerns the target T1, BACE-1 (Homo sapiens, UniProt P56817). The assay can be described thus: LanthaScreen BACE1 biochemical assay (TR-FRET).
Procedure: Biochemical Assay to Assess Compounds for Inhibition of BACE-1
The LanthaScreen™ BACE1 assay kit from Invitrogen (Catalogue number PV4748) was used as the primary assay in the screening cascade.
Briefly, the test compound was incubated with the enzyme and substrate for 1 hour at room temperature in a reaction volume of 15 μl and then 5 nM terbium labelled anti-biotin antibody was added to stop the reaction and the solution incubated for a further 1 hour at room temperature. The microplate was read on an Envision plate reader fitted with a photometric 340 nm excitation filter and the amount of substrate that had been cleaved was represented by the TR-FRET ratio, calculated by dividing the Fluorescein emission signal (520 nm) by the Terbium emission signal (495 nm).
The target in assay [2] is T1, BACE-1. Description: HTRF cell based assay, Aβ1-40 peptide secreted by recombinant HEK293 cells. Details: endogenous in cells; host or cells: recombinant HEK293 cells engineered to over-produce APP. To be noted: for EC50: Aβ1-40 secretion, recombinant HEK293 cells producing APP, overnight treatment, read-out: Cellular assay EC50 Ranges. How it is done: The cell based assay used to support the program utilized HTRF assay reagents from Cisbio (Catalogue number 62B40PEB) to quantify the amount of Aβ1-40 peptide secreted by recombinant HEK293 cells. The cells were engineered to produce high quantities of APP, the precursor for Aβ1-40 peptide, under hygromycin selection pressure. Briefly, cells were plated into 384-well microplates and allowed to settle for 2 hours prior to compound addition. Following overnight treatment with compound, the media containing secreted peptide was transferred into a low volume assay plate for quantification with HTRF immunoassay reagents. Adhering to the manufacturers protocol for quantification, a TR-FRET signal is obtained in the presence of the Aβ1-40 peptide following addition of a cryptate conjugated antibody and an XL665 conjugated antibody, each raised to a different epitope of the Aβ1-40 peptide. A low FRET signal is obtained when cells are treated with compounds that inhibit APP cleavage and peptide secretion.

As usually defined, the IC50 is the concentration that gives 50% inhibition. A word on the EC50: it is the concentration giving half of the maximal effect.

The structures appear in SMILES notation. Where a name gives a salt, the structure may show the parent alone.

T1 sequence (P56817 46-501): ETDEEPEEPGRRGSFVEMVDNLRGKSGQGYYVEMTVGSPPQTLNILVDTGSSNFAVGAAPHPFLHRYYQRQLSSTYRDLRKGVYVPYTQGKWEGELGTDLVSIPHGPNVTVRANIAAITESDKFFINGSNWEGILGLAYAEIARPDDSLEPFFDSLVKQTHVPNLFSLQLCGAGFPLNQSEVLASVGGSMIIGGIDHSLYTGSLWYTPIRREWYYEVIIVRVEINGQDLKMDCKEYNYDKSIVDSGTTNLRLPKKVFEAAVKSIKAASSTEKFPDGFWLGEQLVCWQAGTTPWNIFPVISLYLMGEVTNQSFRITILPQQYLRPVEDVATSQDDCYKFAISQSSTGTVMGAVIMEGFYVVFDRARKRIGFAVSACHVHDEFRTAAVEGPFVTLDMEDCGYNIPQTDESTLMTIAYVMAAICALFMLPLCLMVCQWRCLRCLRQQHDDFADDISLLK

`NC1=NC2(CCS1)CC(c1ccccc1)Cc1sc(-c3cccc(Br)c3)cc12` (racemic) [Example 43] showed an IC50 in assay [1] of 5 to 65 µM. In assay [2], the EC50 was in the range of 5 to 50 µM. The like results for `COc1ccc(-c2cccc(-c3cc4c(s3)CC(c3ccccc3)CC43CCSC(N)=N3)c2)cc1` (racemic) [Example 44] were, in that order, 1 to 5 µM and 5 to 50 µM. With `COCC1Cc2sc(-c3cccc(C#N)c3)cc2C2(CCSC(N)=N2)C1` (racemic) [Example 45, 3-(2′-amino-6-(methoxymethyl)-5′,6,6′,7-tetrahydro-5H-spiro[benzo[b]thiophene-4,4′-[1,3]thiazine]-2-yl)benzonitrile, Hydrochloride Salt], the IC50 in assay [1] is 5 to 65 µM. The EC50 in assay [2] was 1 to 5 µM. In assay [1], `N#Cc1cccc(-c2cc3c(s2)CCC(Cc2ccccc2)C32CCSC(N)=N2)c1` (racemic) [Example 47, 3-(2′-amino-5-benzyl-5′,6,6′,7-tetrahydro-5H-spiro[benzo[b]thiophene-4,4′-[1,3]thiazine]-2-yl)benzonitrile] had an IC50 of 5 to 65 µM. Also, the EC50 in assay [2] fell in the range of 1 to 5 µM. On to `COc1ccc(CC2CCc3sc(-c4cccc(C#N)c4)cc3C23CCSC(N)=N3)cc1` (racemic) [Example 48], for which the IC50 in assay [1] fell in the range of 1 to 5 µM. In addition, in assay [2], the EC50 was in the range of 5 to 50 µM.

In turn, `CN1C(=O)[C@]2(CCCc3sc(-c4cccc(C#N)c4)cc32)N=C1N` (single isomer, unassigned) [Example 50] showed an IC50 in assay [1] of 5 to 65 µM. In assay [2], the EC50 lay within 1 to 5 µM. As for `CN1C(=O)[C@@]2(CCCc3sc(-c4cccc(C#N)c4)cc32)N=C1N` (single isomer, unassigned) [Example 51], the IC50 in assay [1] was under 1 µM. For the same molecule, the EC50 in assay [2] was at most 1 µM.

Regarding `N#Cc1cccc(-c2cc3c(s2)CCCC32CCSC(N)=N2)c1` (stereo in doubt) [Example 2, (R)-3-(2′-amino-5′,6,6′,7-tetrahydro-5H-spiro[benzo[b]thiophene-4,4′-[1,3]thiazine]-2-yl)benzonitrile], the IC50 in assay [1] was under 1 µM. The EC50 in assay [2] was at most 1 µM.

Take `N#Cc1cccc(-c2cc3c(s2)CCCC32CCSC(N)=N2)c1` (stereo not shown) [Example 1, 3-(2′-amino-5′,6,6′,7-tetrahydro-5H-spiro[benzo[b]thiophene-4,4′-[1,3]thiazine]-2-yl)benzonitrile, Formate Salt]: in assay [1], the IC50 was 1 to 5 µM. Also, in assay [2], the EC50 was at most 1 µM. The like results for `NC1=NC2(CCCc3sc(-c4ccc(F)cc4)cc32)CCS1` (stereo not shown) [Example 3] were, in that order, 5 to 65 µM and 5 to 50 µM. For `NC1=NC2(CCCc3sc(-c4cccnc4)cc32)CCS1` (stereo not shown) [Example 4], in that order: 5 to 65 µM and 5 to 50 µM. For `COc1ccc(-c2cc3c(s2)CCCC32CCSC(N)=N2)cn1` (stereo not shown) [Example 5], in that order: 5 to 65 µM and 5 to 50 µM. As to `NC1=NC2(CCCc3sc(-c4ccc5c(c4)CCO5)cc32)CCS1` (stereo not shown) [Example 6], the IC50 in assay [1] was 5 to 65 µM. Also, in assay [2], the EC50 fell in the range of 5 to 50 µM.

In assay [1], `NC1=NC2(CCCc3sc(-c4cncnc4)cc32)CCS1` (stereo not shown) [Example 7] had an IC50 of 5 to 65 µM. Moreover, the EC50 in assay [2] lay in the range of 5 to 50 µM.

As for `NC1=NC2(CCCc3sc(-c4ccc5c(c4)OCO5)cc32)CCS1` (stereo not shown) [Example 8], the IC50 in assay [1] was in the range of 5 to 65 µM. The EC50 in assay [2] lay in the range of 5 to 50 µM. The like results for `CS(=O)(=O)c1cccc(-c2cc3c(s2)CCCC32CCSC(N)=N2)c1` (stereo not shown) [Example 9] were, in that order, 5 to 65 µM and 1 to 5 µM. Consider `COc1ccc(C#N)cc1-c1cc2c(s1)CCCC21CCSC(N)=N1` (stereo not shown) [Example 10], for which the IC50 in assay [1] was in the range of 1 to 5 µM. Also, the EC50 in assay [2] is at most 1 µM.

As for `COc1cc(C#N)cc(-c2cc3c(s2)CCCC32CCSC(N)=N2)c1F` (stereo not shown) [Example 11], the IC50 in assay [1] was 5 to 65 µM. Besides, the EC50 in assay [2] was 1 to 5 µM.

On to `N#Cc1cc(F)cc(-c2cc3c(s2)CCCC32CCSC(N)=N2)c1` (stereo not shown) [Example 12], for which the IC50 in assay [1] lay in the range of 5 to 65 µM. In addition, the EC50 in assay [2] is 1 to 5 µM. Molecule `COC(=O)c1cccc(-c2cc3c(s2)CCCC32CCSC(N)=N2)c1` (stereo not shown) [Example 13] returned an IC50 in assay [1] of 5 to 65 µM. For the same molecule, in assay [2], the EC50 is 5 to 50 µM. The molecule `N#Cc1cc(-c2cc3c(s2)CCCC32CCSC(N)=N2)ccc1F` (stereo not shown) [Example 14] had an IC50 in assay [1] of 1 to 5 µM. Besides, the EC50 in assay [2] lay within 1 to 5 µM. In assay [1], `N#Cc1ccc(F)c(-c2cc3c(s2)CCCC32CCSC(N)=N2)c1` (stereo not shown) [Example 15] had an IC50 of 1 to 5 µM. Besides, the EC50 in assay [2] is at most 1 µM. `N#Cc1ccc(Cl)c(-c2cc3c(s2)CCCC32CCSC(N)=N2)c1` (stereo not shown) [Example 16] returned an IC50 in assay [1] of 1 to 5 µM. In assay [2], the EC50 is at most 1 µM.

Regarding `COc1cc(C#N)cc(-c2cc3c(s2)CCCC32CCSC(N)=N2)c1` (stereo not shown) [Example 17], the IC50 in assay [1] fell in the range of 1 to 5 µM. In addition, the EC50 in assay [2] is 1 to 5 µM. As to `COc1ncc(-c2cc3c(s2)CCCC32CCSC(N)=N2)cc1C#N` (stereo not shown) [Example 18], in assay [1], the IC50 was in the range of 5 to 65 µM. In assay [2], the EC50 was 1 to 5 µM. The like results for `N#Cc1cncc(-c2cc3c(s2)CCCC32CCSC(N)=N2)c1` (stereo not shown) [Example 19] were, in that order, 5 to 65 µM and 1 to 5 µM. For `N#Cc1cc(-c2cc3c(s2)CCCC32CCSC(N)=N2)ccn1` (stereo not shown) [Example 20], in that order: 5 to 65 µM and 1 to 5 µM. The like results for `NC1=NC2(CCCc3sc(-c4cccc(-c5ccccc5)c4)cc32)CCS1` (stereo not shown) [Example 21] were, in that order, 1 to 5 µM and 5 to 50 µM. `COc1ccc(-c2cc3c(s2)CCCC32CCSC(N)=N2)cc1C#N` (stereo not shown) [Example 22]: in assay [1], the IC50 fell in the range of 5 to 65 µM. Further, in assay [2], the EC50 fell in the range of 1 to 5 µM. The molecule `COCc1cccc(-c2cc3c(s2)CCCC32CCSC(N)=N2)c1` (stereo not shown) [Example 23] yielded an IC50 in assay [1] of 5 to 65 µM. Moreover, the EC50 in assay [2] was in the range of 1 to 5 µM. For the molecule `NC1=NC2(CCCc3sc(-c4cccc(OC(F)(F)F)c4)cc32)CCS1` (stereo not shown) [Example 24], the IC50 in assay [1] was 1 to 5 µM. In assay [2], the EC50 fell in the range of 5 to 50 µM. The like results for `NC1=NC2(CCCc3sc(-c4cccc(C(F)(F)F)c4)cc32)CCS1` (stereo not shown) [Example 25] were, in that order, 1 to 5 µM and 5 to 50 µM. `NC1=NC2(CCCc3sc(-c4cccc(Oc5ccccc5)c4)cc32)CCS1` (stereo not shown) [Example 26] returned an IC50 in assay [1] of 1 to 5 µM. Further, the EC50 in assay [2] is 5 to 50 µM.

The molecule `CC(C)c1cccc(-c2cc3c(s2)CCCC32CCSC(N)=N2)c1` (stereo not shown) [Example 27] returned an IC50 in assay [1] of 1 to 5 µM. In addition, the EC50 in assay [2] lay in the range of 5 to 50 µM.

Take `NC1=NC2(CCCc3sc(-c4cccc(Cl)c4)cc32)CCS1` (stereo not shown) [Example 28]: the IC50 in assay [1] was in the range of 1 to 5 µM. Moreover, the EC50 in assay [2] lay in the range of 5 to 50 µM. In assay [1], `NC1=NC2(CCCc3sc(-c4ccc(-c5ccccc5)cc4)cc32)CCS1` (stereo not shown) [Example 29] showed an IC50 of 1 to 5 µM. Also, the EC50 in assay [2] lay in the range of 5 to 50 µM. Take `NC1=NC2(CCCc3sc(-c4cccc(OCc5ccccc5)c4)cc32)CCS1` (stereo not shown) [Example 30]: in assay [1], the IC50 fell in the range of 1 to 5 µM. Further, the EC50 in assay [2] fell in the range of 5 to 50 µM. The like results for `N#Cc1cccc(-c2cc3c(s2)CCCC32CCSC(N)=N2)n1` (stereo not shown) [Example 31] were, in that order, 1 to 5 µM and 1 to 5 µM. In turn, `N#Cc1cc(-c2cc3c(s2)CCCC32CCSC(N)=N2)cc(C(F)(F)F)c1` (stereo not shown) [Example 32] registered an IC50 in assay [1] of 1 to 5 µM. For the same molecule, the EC50 in assay [2] is 5 to 50 µM. Consider `C[C@H](NC(=O)Cc1cc(F)cc(F)c1)C(=O)N[C@@H]1C(=O)N(C)c2ccccc2-c2ccccc21` [reference compound], for which the IC50 in assay [2] (reference inhibitor, inhibition of Aβ1-40 peptide secretion, 30,000 cells per well) stood at 0.0002 µM.

For the origin of these results see US9233982B2, “Spiro tetrahydro—benzothiophen derivatives useful for the treatment neurodegenerative diseases” (Ares Trading S.A., priority 2012, dated 2016).
